Read-outs that look alike come from different tables or passages of the source. One block for each molecule: values may come before it.
Tests used:
retinal blood vessel = settings: cited from earlier work
porcine retinal artery = assay: Retinal vasodilation test using porcine retinal extraction artery; type: cell-based, pig
Experimental: Pigs aged 8 to 12 weeks were euthanized. Immediately after euthanization, the eyeballs were excised. A retinal artery was separated from the excised eyeballs (Nagaoka et al., Invest Ophthalmol Vis Sci. 2007 February; 48(2):825-32.). An anterior eye part and a vitreous body were carefully taken out with an anatomical microscope. A posterior eye part was placed in an ice-cold dissection chamber containing a physiological saline solution (PSS: 145.0 mM NaCl, 4.7 mM KCl, 2.0 mM CaCl2), 1.17 mM MgSO4, 1.2 mM NaH2PO4, 5.0 mM glucose, 2.0 mM pyruvic acid, 0.02 mM EDTA, and 3.0 mM [3-(N-morpholino) propanesulfonic acid] (MOPS)) to which 1% albumin was added. A single secondary retinal artery (in-situ inner diameter: 90 to 130 μm, length: 0.6 to 1.0 mm) was carefully dissected using a Dumont microdissection forceps (Fine Science Tools, Inc., Foster City, CA) under observation with a stereomicroscope (model SZX12; Olympus, Melville, NY). After carefully removing the remaining nerve tissue and connective tissue, an artery was transferred to a Lucite-made blood vessel chamber into which a PSS-albumin solution equilibrated with air at room temperature was added for cannula insertion. A glass micro pipette (outer diameter of distal end: 30 to 40 μm) filled with the PSS-albumin solution was used to cannulate one end of the artery, and the outside of the artery was firmly tied to a pipette with 11-0 ophthalmic suture (Alcon, Fort Worth, TX). The other end of the blood vessel was cannulated with a second micro pipette and fixed with a suture. After the cannula insertion, the blood vessel and the pipette were transferred to the stage of an inverted microscope (model CKX41, Olympus); and a video camera (Sony DXC-190, Labtek, Campbell, CA), a video micrometer (Cardiovascular Research Institute, Texas A&M System Health Science Center, College Station, TX), and a data collection system (PowerLab, ADInstruments, Colorado Springs, CO) were connected to each other. Thereafter, the inner diameter was continuously measured and recorded during the experiment. The micro pipette was connected to an independent pressure reservoir (a 30 mL glass syringe). The blood vessel was pressurized to a lumen pressure of 55 cm H2O (40 mmHg) by adjusting the height of the reservoir.
The cannula-inserted arteriole was immersed in PSS at 36° C. to 37° C. to generate a basal tone. […] After the control reaction was terminated, the blood vessel was washed with PSS, and the basal tone was re-generated. […]
(§1) The blood vessel was relaxed with EDTA (1 mM)-calcium-free PSS, and the maximum diameter was obtained at a lumen pressure of 55 cmH2O. The change in diameter of the blood vessel in response to nobiletin was standardized by the maximum vasodilation and expressed as a percentage with respect to the maximum vasodilation. […]

[1] = tested on: porcine retinal artery denuded of endothelium; assay: Retinal vasodilation test using porcine retinal extraction artery denuded of endothelium (CHAPS); type: cell-based, pig; settings: n=11, FIG. 3 (Example 3)
Experimental: (§2) Pigs aged 8 to 12 weeks were euthanized. Immediately after euthanization, the eyeballs were excised. A retinal artery was separated from the excised eyeballs (Nagaoka et al., Invest Ophthalmol Vis Sci. 2007 February; 48(2):825-32.). An anterior eye part and a vitreous body were carefully taken out with an anatomical microscope. A posterior eye part was placed in an ice-cold dissection chamber containing a physiological saline solution (PSS: 145.0 mM NaCl, 4.7 mM KCl, 2.0 mM CaCl2), 1.17 mM MgSO4, 1.2 mM NaH2PO4, 5.0 mM glucose, 2.0 mM pyruvic acid, 0.02 mM EDTA, and 3.0 mM [3-(N-morpholino) propanesulfonic acid] (MOPS)) to which 1% albumin was added. A single secondary retinal artery (in-situ inner diameter: 90 to 130 μm, length: 0.6 to 1.0 mm) was carefully dissected using a Dumont microdissection forceps (Fine Science Tools, Inc., Foster City, CA) under observation with a stereomicroscope (model SZX12; Olympus, Melville, NY). […] Thereafter, the inner diameter was continuously measured and recorded during the experiment. […]
The blood vessel was relaxed with EDTA (1 mM)-calcium-free PSS, and the maximum diameter was obtained at a lumen pressure of 55 cmH2O. The change in diameter of the blood vessel in response to nobiletin was standardized by the maximum vasodilation and expressed as a percentage with respect to the maximum vasodilation.

[2] = tested on: porcine retinal artery treated with ODQ; assay: Retinal vasodilation test using porcine retinal extraction artery treated with ODQ (guanylate cyclase inhibitor); type: cell-based, pig
Experimental: as §2, with “added.” for “added. A single secondary retinal artery (in-situ inner diameter: 90 to 130 μm, length: 0.6 to 1.0 mm) was carefully dissected using a Dumont microdissection forceps (Fine Science Tools, Inc., Foster City, CA) under observation with a stereomicroscope (model SZX12; Olympus, Melville, NY).”
as §1
In the same manner as in Example 1, the porcine retinal extraction artery was treated with ODQ, and the role of guanylate cyclase in the retinal vasodilating effect of nobiletin was evaluated (n=7).

rat aorta = settings: pre-contracted with phenylephrine; vascular endothelium-independent; cited from earlier work
rat mesenteric artery = settings: pre-contracted with phenylephrine; vascular endothelium-dependent; cited from earlier work
rat pulmonary artery = settings: cited from earlier work

Molecule: Oc1ccc(C=Cc2cc(O)cc(O)c2)cc1 [Resveratrol]
Maximum vasodilation rate (retinal blood vessel; concentration 10^-4M): 60%

Molecule: CCCCCCCC(=O)CC[C@@H]1[C@@H](C/C=C\CCCC(=O)O)[C@@H](O)C[C@H]1O [Unoprostone]
Maximum vasodilation rate (retinal blood vessel; concentration 10^-5M): 30%

retinal vasodilating effect after treating the blood vessel with ODQ ([2]; ODQ 0.1 μM, 30 minutes, FIG. 1 (Example 1)): suppressed
retinal vasodilating effect after addition of ODQ ([2]; n=7, FIG. 4 (Example 4)): suppressed
Molecule: COc1ccc(-c2cc(=O)c3c(OC)c(OC)c(OC)c(OC)c3o2)cc1OC [Nobiletin, 2-(3,4-Dimethoxyphenyl)-5,6,7,8-tetramethoxychromen-4-one]
retinal vasodilating effect compared with positive control SNP (porcine retinal artery; FIG. 1 (Example 1)): higher than that of SNP
Maximum vasodilation rate (porcine retinal artery; concentration 10^-4M, percentage with respect to the maximum vasodilation): 90%
retinal vasodilating effect (porcine retinal artery; extracted porcine retinal artery, FIG. 1 (Example 1)): strong retinal vasodilating effect in a dose-dependent manner
vasodilating action in comparison with known medications (porcine retinal artery; influence of the solvent excluded, Table 1): most powerful vasodilating action
vasodilating effect in artery with vascular endothelium removed (denudation) compared with artery not denuded [1]: suppressed
vasodilating action (rat aorta): vasodilating action
vasodilating action (rat mesenteric artery): vasodilating action
vasodilator response (rat pulmonary artery): did not occur

Molecule: CC#CCC(C)[C@H](O)/C=C/[C@@H]1[C@H]2c3cccc(CCCC(=O)O)c3O[C@H]2C[C@H]1O (mixture of isomers) [Beraprost]
Maximum vasodilation rate (retinal blood vessel; concentration 10^-7M): 70%

Molecule: O=C1CCc2cc(OCCCCc3nnnn3C3CCCCC3)ccc2N1 [Cilostazol]
Maximum vasodilation rate (retinal blood vessel; concentration 10^-5M): 40%

B1: Adiponectin (protein, UniProt Q15848 19-244, looked up)
Adiponectin: ETTTQGPGVLLPLPKGACTGWMAGIPGHPGHNGAPGRDGRDGTPGEKGEKGDPGLIGPKGDIGETGVPGAEGPRGFPGIQGRKGEPGEGAYVYRSAFSVGLETYVTIPNMPIRFTKIFYNQQNHYDGSTGKFHCNIPGLYYFAYHITVYMKDVKVSLFKKDKAMLFTYDQYQENNVDQASGSVLLHLEVGDQVWLQVYGEGERNGLYADNDNDSTFTGFLLYHDTN
Maximum vasodilation rate (retinal blood vessel; concentration 8 μg/mL): 50%

Source: patent US20260256731A1, “RETINAL VASODILATOR AND PHARMACEUTICAL COMPOSITION” (TEIKYO UNIVERSITY, priority 2022, published 2026)
